We go through 2 molecules from patent publication US20090054333A1, “Peptide inhibitors of cyclin-dependent kinase activity and uses thereof” (priority 2006, published 2009).

One assay concerns endogenous cdk2. Description: endogenous cdk2 kinase activity after transient transfection of NIH/3T3 cells. Format: cell-based. The note with it: NIH/3T3 transfected with pEF6/V5 constructs; 48 h after transfection. Here is the method:
Kinase assays: Cell lysates from NIH/3T3 were prepared by resuspending pelleted cells in 500 μl of lysis buffer (50 mM Tris, 5 mM EDTA, 250 mM NaCl, 50 mM NaF, 0.1% Triton, 0.1 mM Na3VO4, plus protease inhibitors). An equal amount of protein for each fraction (100 μg) was immunoprecipitated with a polyclonal anti-cdk2 antibody (De Luca et al., 1997, J Biol Chem, 272, 20971-4). The complexes were pulled down with protein A-Sepharose and washed three times with lysis buffer and twice with lysis buffer containing 400 mM NaCl. The complexes were equilibrated in kinase assay buffer (20 mM HEPES pH 7.4, 10 mM MgAc, […], 1 mM DTT). In order to detect the in vitro inhibition of cdk2 activity, each sample was incubated with an equal amount (0.1 μg) of each pGEX-2T fusion protein, in a final volume of 20 μl of kinase buffer, using 5 μCi/sample of γ-ATP (Amersham Biosciences, Piscataway, N.J.) and 2 μg of Histone H1 for 30 minutes at 30° C. Kinase assays were repeated at least three times, giving an inter assay standard deviation within 10% after normalization for protein amount. […]
In FIG. 3a, asynchronously growing NIH/3T3 cells were transfected with pEF6/V5 vector, pEF6/V5-Spa310 or pEF6/V5-spacer. […] Phosphorylation of histone H1 was monitored by autoradiography. […]

The next assay concerns NIH/3T3 cells. Description: colony formation assay. The settings on record: NIH/3T3 transfected with 5 μg pEF6/V5 construct; blasticidin S selection; colonies counted after eight days. Format: cell-based. Here is the method:
Colony formation assay: The effects of the pRb2/p130 spacer domain and 39 aa small peptide overexpression on cellular growth was examined by colony formation assays. Exponentially growing NIH/3T3 cells were seeded in 100-mm dishes at a density of 5×10^5 cells per 100 mm dish the day before transfection. Cells were transfected with 5 μg of pEF6/V5-spacer, pEF6/V5-Spa310 or the control vector pEF6/V5 carrying the brasticidin S-resistant gene (bsr) as a selectable marker gene. For selection, blasticidin S hydrochloride (Funakoshi, Tokyo, Japan) was added to the culture medium 48 h after transfection, at a final concentration of 10 μg/mL. After 6 days, 1×10^3 of blasticidin S-resistant cells in each well were plated in triplicate in 60-mm dishes, in order to evaluate their colony-forming ability. Cells were then incubated at 37° C. for eight days in a selecting medium containing blasticidin S hydrochloride at a final concentration of 10 μg/mL. Colonies, defined as groups of a minimum of 50 cells, were counted after staining with 2% methylene blue in 95% ethanol.
As presented in FIGS. 4a and 4b, the spacer region caused a decrease on the ability of the cells to form colonies of about 50% and the Spa310 of about 60%. […] After six days, an equal number of resistant cells were plated in 60-mm dishes and colony-forming ability was evaluated after eight days of continuous selection. […]

For the molecule “Spa310: pRb2/p130 amino acids 641-679 (39 amino acids long), SEQ ID NO:3; LTPRRVTEVRADTGGLGRSITSPTTLYDRYSSPPASTTR (listed as Homo sapiens)”, the “inhibition of cdk2-dependent histone phosphorylation (endogenous cdk2)” value in the assay with endogenous cdk2 was “significant inhibition”. Also, in the assay with NIH/3T3 cells, the “decrease on the ability of the cells to form colonies” value is listed as “about 60%”.

B1: Spacer: full-length pRb2/p130 spacer domain, amino acids 616-828 (SEQ ID NO:20) (protein, listed as Homo sapiens)
chain: VPTCEEVMPPQNLERADEICIAGSPLTPRRVTEVRADTGGLGRSITSPTTLYDRYSSPPASTTRRRLFVENDSPSDGGTPGRMPPQPLVNAVPVQNVSGETVSVTPVPGQTLVTMATATVTANNGQTVTIPVQGIANENGGITFFPVQVNVGGQAQAVTGSIQPLSAQALAGSLSSQQVTGTTLQVPGQVAIQQISPGGQQQKQGQSVTSSSN
As for B1, in the assay on endogenous cdk2, the “inhibition of cdk2-dependent histone phosphorylation (endogenous cdk2)” value is “significant inhibition”. Further, the “decrease on the ability of the cells to form colonies” value in the assay on NIH/3T3 cells is “about 50%”.
